# Measurements as given in paper PMC3094704, “S-Petasin, the Main Sesquiterpene of Petasites formosanus, Inhibits Phosphodiesterase Activity and Suppresses Ovalbumin-Induced Airway Hyperresponsiveness” (Evidence-based Complementary and Alternative Medicine : eCAM, 2011).
# Tests used:
# [1] = test system: OVA-sensitized and challenged BALB/c mice; assay: Airway hyperresponsiveness in vivo (Penh, whole-body plethysmography); design: species or system mouse
# Procedure: (§1) Ten female BABL/c mice in each group were sensitized by an intraperitoneal (i.p.) injection of 20 μg of OVA emulsified in 2.25 mg aluminum hydroxide gel in a total volume of 100 μL on days 0 and 14. The mice were challenged via the airway by 1% OVA in saline for 30 min on Days 28, 29 and 30 by ultrasonic nebulization. Six weeks after the last of three primary OVA challenges, the mice were exposed to 1% OVA for 30 min by nebulization as a secondary challenge. AHR was assessed on Day 74 (48 h after 1% OVA provocation) in each group. […] For comparison, sham-treated mice were sensitized but challenged with saline instead of 1% OVA (non-challenged). The vehicle, a mixture of alcohol : DMSO : 30% HPβCD : saline (0.5 : 0.5 : 1 : 8 , v/v), or S-petasin was injected at a volume of 0.01 mL/g of body weight. AHR was measured in unrestrained animals by barometric plethysmography using a whole-body plethysmograph (WBP) and analyzed using software of Life Science Suite P3 Analysis Modules (Gould, LDS Test and Measurement LLC, Valley View, OH, USA). The mice were placed into the main chamber of the WBP, and the baseline enhanced pause (P enh) value was determined. Then the mice were nebulized first with phosphate-buffered saline (PBS), and subsequently with increasing doses (6.25–50 mg/mL) of MCh for 3 min for each nebulization, followed by readings of breathing parameters for 3 min after each nebulization with determination of P enh values. Twenty-four hours after the P enh determination, these mice were anesthetized with pentobarbital (50 mg/kg, i.p.), and lavaged via a tracheal tube with PBS (1 × 1.0 mL, 37°C). After lavage, blood was collected from the jugular vein and allowed to sit so that it would coagulate. The collected bronchoalveolar lavage fluid (BALF) and coagulated blood were, respectively, centrifuged at 630 g for 7 min and at 3700 g for 10 min at 4°C, respectively. After centrifugation, the supernatants of BALF and serum were stored at −20°C until the determinations of cytokines, including interleukin (IL)-2, IL-4, IL-5, tumor necrosis factor (TNF)-α and interferon (IFN)-γ by flow cytometric methods using mouse Th1/Th2 cytokine CBA kits, of total immunoglobulin E (IgE), and of total IgG2a using enzyme-linked immunosorbent assay (ELISA) kits (Pharmingen, San Diego, CA, USA) according to the respective recommendations of the manufacturer. OVA-specific IgE was measured as described previously with some modifications. Wells were coated with 100 μL of OVA (20 μg/mL) instead of the capture antibody. Levels are expressed in arbitrary units, where one arbitrary unit equals the optical density of the sample divided by the optical density of unchallenged mouse serum or BALF (standard). The pellet from BALF was re-suspended in ACK lysing buffer (1.658 g NH4Cl, 0.2 g KHCO3 and 1.44 mg EDTA in 200 mL of water) to lyse the residual erythrocytes in each sample. The number of inflammatory cells was counted using a hemocytometer (Hausser Scientific, Horsham, PA, USA). Cytospun slides were stained and differentiated in a blinded fashion by counting at least 100 cells under light microscopy.
# PDE5 = target: T1, PDE5 (Cavia porcellus, UniProt H0VD23); assay: Inhibition of PDE5 activity (two-step radioenzymatic assay); format: biochemical, guinea pig; settings: mean ± SEM (n); read-out: IC50 on PDE isozyme 5
# T1 construct: partially separated from guinea pig lungs and hearts; from tissue; host or cells: guinea pig lungs and hearts
# Procedure: Activities of PDE1–5, partially separated from guinea pig lungs and hearts according to the method described by Ko et al., were measured with a two-step procedure according to the method of Thompson and Appleman, using cAMP with [^3H]-cAMP or cGMP with [^3H]-cGMP as substrates. The enzyme pμreparation (25 μL) was incubated for 30 min at 37°C in a total assay volume of […] containing 50 mM Tris-HCl (pH 7.4), 3 mM MgCl2, 1 mM dithiothreitol, 0.05% BSA, 1 μM cAMP with 0.2 μCi [^3H]-cAMP as a substrate alone or in the presence of 0.1 units calmodulin with 10 μM CaCl2 or 5 μM cGMP, and 1 μM cGMP with 0.2 μCi [^3H]-cGMP as another substrate alone or in the presence of 0.1 units calmodulin with 10 μM CaCl2. […] The reagents and homogenate were mixed on ice, and the reaction was initiated by transferring the mixture to a water bath at 37°C. Following a 30-min incubation, the reaction was stopped by transferring the reaction vessel to a bath of boiling water for 3 min. After cooling on ice, 20 μL of a 1 mg/mL solution of C. atrox snake venom was added to the reaction mixture, and the mixture was incubated at 37°C for 10 min. Unreacted [^3H]-cAMP or [^3H]-cGMP was removed by the addition of 500 μL of a 1-in-1 Tris-HCl (40 mM) buffer suspension of Dowex resin (1 × 8-200) with incubation on ice for 30 min. […]
# [2] = Solubility limit of S-petasin in the binding assay; format: physicochemical; settings: reaction buffer of binding assay, aqueous buffer; read-out: Highest attainable concentration owing to solubility
# [3] = test system: OVA-sensitized and challenged BALB/c mice; assay: IgG2a and IgE in serum and BALF (ELISA); format: in vivo, mouse
# Procedure: as §1
# [4] = test system: OVA-sensitized and challenged BALB/c mice; assay: Inflammatory cells in BALF; format: in vivo, mouse
# Procedure: as §1
# [5] = 30 μmol/kg s.c., exception at 10 μmol/kg
smiles,measurement,setting,value
C=C(C)[C@@H]1C[C@@]2(C)C(=CC1=O)CC[C@@H](OC(=O)/C=C\SC)[C@@H]2C [S-Petasin],Penh value at the baseline,[1]; 10 μmol/kg s.c.,3.19 ± 0.47
same,Penh value of PBS nebulization,[1]; 10 μmol/kg s.c.,2.99 ± 0.22
same,Penh value at the baseline,[1]; 30 μmol/kg s.c.,3.13 ± 0.32
same,Penh value of PBS nebulization,[1]; 30 μmol/kg s.c.,3.02 ± 0.23
same,Enhancement of the Penh value induced by MCh,"[1]; 10–30 μmol/kg s.c., MCh at 50 mg/mL",dose-dependently and significantly attenuated
same,IC50,PDE5,> 100 µM
same,solubility,[2],≤ 300 µM
same,Reduction of total IgG2a level in the serum,[3]; 30 μmol/kg s.c.,significantly reversed
same,Enhancement of total IgE in the BALF,[3]; [5],dose-dependently and significantly suppressed
same,Enhancement of OVA-specific IgE in the BALF,[3]; 10–30 μmol/kg s.c.,dose-dependently and significantly suppressed
same,Enhancement of OVA-specific IgE in the serum,[3]; 10–30 μmol/kg s.c.,dose-dependently and significantly suppressed
same,Enhancement of total IgE in the serum,[3]; 10–30 μmol/kg s.c.,dose-dependently and significantly suppressed
same,Increase in lymphocytes in BALF,[4]; [5],significantly suppressed
same,Increase in eosinophils in BALF,[4]; 10–30 μmol/kg s.c.,significantly suppressed
same,Increase in neutrophils in BALF,[4]; 10–30 μmol/kg s.c.,significantly suppressed
same,Increase in total inflammatory cells in BALF,[4]; 10–30 μmol/kg s.c.,significantly suppressed
same,Macrophages in BALF,[4]; 10–30 μmol/kg s.c.,not affected
